Key:
[1] = test system: S. cereviseae BY4742; test: GFP destabilization/re-stabilization assay of TetR::AcGFP fusions in yeast liquid culture +/- atc; format: cell-based, Saccharomyces cereviseae; details: TetR::AcGFP fusion, galactose induced, 6 hrs growth, FIG. 3
From the text: The third mutation, 122D (Reichheld and Davidson 2006), is a constitutive mutation in the presence or absence of ligand. Both L17G and I22D lie in the DNA binding domain (DBD) whereas G96R is in alpha helix 6 within the ligand binding domain (LBD). To test the effect of these mutations for ligand gated stability a GFP destabilization/re-stabilization assay (FIG. 1) was created. To do this a fusion between the coding regions of TetR B (Wray et al. 1981) and AcGFP (Gurskaya et al. 2003) by PCR amplifying the TetR region from plasmid pVER7568 using primers REPS' and TetR::AcGFP Rev and the AcGFP coding region from plasmid pHD1010 with primers TetR::AcGFP For and AcGFP3′ (Table 2) was created. The PCR products were then combined and subjected to overlap extension PCR using primers REPS' and AcGFP3′. The resulting full length PCR fusion product was then cloned into the Galactose inducible yeast expression vector p415GAL (ATCC#87330) as an XbaI/HindIII fragment. […] 100 ul aliquots of resuspended cells were placed into clear bottom black 96-well plates and their fluorescence determined with a Typhoon Laser Image Scanner (GE: […]). […]

[2] = test system: S. cereviseae BY4742; test: GFP fluorescence of wt and L17G repressor::GFP fusions in yeast on agar +/- atc, ethametsulfuron or chlorsulfuron, incl. dose response; format: cell-based, Saccharomyces cereviseae; details: 5-10 uM atc, destabilized (L17G) fusion, FIG. 7
From the text: Next, we wanted to determine if a similar ligand enhanced protein accumulation effect would translate to our SU repressor backbones. […] Given the number of changes to the parent sequence and the 100% change in ligand preference it was not clear if they would behave in a similar manner. […] This was done by PCR amplifying the above coding regions with primers REPS' and EsR(L3-23) Rev, EsR(L15-20) Rev, or CsR(L4-20) Rev (Table 2), digesting each PCR product with StuI/BamHI and cloning each product into StuI/BamHI digested backbone fragments of pHD1184 and pHD2012 to give both wt and L17G mutant DNA binding domain combinations, respectively for most of the SuR's (schematic in FIG. 4). The resulting vectors (Table 4) were then transformed into S. cereviseae BY4742 as for pHD1184 (above). Each strain was then grown overnight in YPD medium and the cultures arrayed in 96-well format such that there were four repeats of every strain per plate. The array was then stamped onto 40 ml DOBA agar supplemented with 2% galactose, 0.025% casamino acids, and either 10 uM atc, ethametsulfuron, chlorsulfuron or no addition as the control. The plates were grown two days at 30° C. and imaged using a Typhoon laser scanning imager (GE) with excitation and emission set at 488 and 520 nm respectively. […]

Row | Substance | accumulation of GFP compared to wt TetR [1] | GFP response to ligand (dose response) [2]
1 | TetR(G96R) | significant negative impact | –
2 | TetR(L17G) | significant negative impact | ~10 ×

Reference: patent publication US20160326540A1, “Methods and Compositions Employing a Sulfonylurea-Dependent Stabilization Domain” (PIONEER HI-BRED INTERNATIONAL, INC., priority 2013, published 2016)
